Data published in US20240409585A1, “MACROCYCLIC IMMUNOMODULATORS” (priority 2021, published 2024).
Numbered stars: 1 amine (or outer) side, 2 acyl side, 3 side chain; on linkers, the order of the positions; unused ones are H or OH. Bridge positions count the residues as written; N and C are the ends. Square brackets hold non-standard residues; d marks the D form. Peptide text beside a SMILES is read from it. * marks the point of attachment. Bip(4'-COOH) = N[C@@H](Cc1ccc(-c2ccc(C(=O)O)cc2)cc1)C(=O)O; Bip(4'-NHAc) = CC(=O)Nc1ccc(-c2ccc(C[C@H](N)C(=O)O)cc2)cc1; Phe(3-CF3) = N[C@@H](Cc1cccc(C(F)(F)F)c1)C(=O)O; Ala(morpholin-4-yl) = N[C@@H](CN1CCOCC1)C(=O)O; Phe(4-CONH2) = NC(=O)c1ccc(C[C@H](N)C(=O)O)cc1; Phe(4-COOH) = N[C@@H](Cc1ccc(C(=O)O)cc1)C(=O)O; X5 = CS(=O)(=O)NC(=O)C[C@H](N[*:1])C(=O)[*:2]; X53 = O=C([C@H](Cc1cc(F)c(F)cc1F)N[*:1])[*:2]; Bip = N[C@@H](Cc1ccc(-c2ccccc2)cc1)C(=O)O; Phe(3-Me) = Cc1cccc(C[C@H](N)C(=O)O)c1; Abu(3S-NH2) = C[C@H](N)[C@H](N)C(=O)O; Val(3-OH) = CC(C)(O)[C@H](N)C(=O)O; Ala(cPr) = N[C@@H](CC1CC1)C(=O)O; hArg = N=C(N)NCCCC[C@H](N)C(=O)O; hCha = N[C@@H](CCC1CCCCC1)C(=O)O; hPhe = N[C@@H](CCc1ccccc1)C(=O)O; Cha = N[C@@H](CC1CCCCC1)C(=O)O; Carboxymethyl = O=C(O)C*; NMeA = CN[C@@H](C)C(=O)O; Nle = CCCC[C@H](N)C(=O)O; Orn = NCCC[C@H](N)C(=O)O; Dab = NCC[C@H](N)C(=O)O

Biological target: T1, Alexa fluor-647 labeled human PD-L1-Ig binding to Jurkat cell line over-expressing human PD-1 (Homo sapiens, UniProt Q15116)
T1 construct: expressed in transfected cells; host or cells: Jurkat
Assay: Jurkat-PD-1 Cell Binding High-Content Screening Assay (CBA): Method 3 (Alexa fluor-647 labeled PD-L1-Ig)
Settings: Jurkat-PD-1 cells, Alexa fluor-647 labeled PD-L1-Ig 177 nM; head μM; read-out: CBA Method 3 μM
Method in brief: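 Jurkat cells over-expressing human PD-1 in RPMI/10% FCS were preincubated 2 h at 37 °C with compound, then exposed 1 h to Alexa fluor-647 labeled human PD-L1-Ig (177 nM final). Cells fixed in 4% paraformaldehyde with Hoechst 33342 and binding quantified by high-content imaging.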

T1 sequence (Q15116 25-288): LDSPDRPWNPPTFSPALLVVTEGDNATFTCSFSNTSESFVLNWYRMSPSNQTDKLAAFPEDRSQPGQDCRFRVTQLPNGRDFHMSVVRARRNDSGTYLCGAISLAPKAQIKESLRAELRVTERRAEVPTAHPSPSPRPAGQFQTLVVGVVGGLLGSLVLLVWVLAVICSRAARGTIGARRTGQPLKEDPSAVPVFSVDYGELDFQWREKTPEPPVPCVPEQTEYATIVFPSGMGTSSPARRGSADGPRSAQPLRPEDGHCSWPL

Compound | IC50 [µM]
Cc1cccc(C[C@@H]2NC(=O)[C@H](CC(=O)O)NC(=O)[C@H](Cc3ccc(OCC(=O)O)cc3)NC(=O)[C@H](Cc3cc(F)c(F)cc3F)NC(=O)CSC[C@@H](C(=O)N[C@@H](CCN)C(N)=O)NC(=O)[C@H](CCCN)NC(=O)[C@H](C(C)C)NC(=O)[C@H](CC3CCCCC3)NC(=O)[C@H](CCN)NC(=O)[C@@H](CC(C)C)NC(=O)[C@H](C)N(C)C(=O)[C@H](CCC(N)=O)NC(=O)[C@H](Cc3ccc(-c4ccccc4)cc3)NC(=O)[C@H](Cc3ccc(C(=O)O)cc3)NC2=O)c1 [Example 5290] ({CH2CO}-[X53]Y(Carboxymethyl)D[Phe(3-Me)][Phe(4-COOH)][Bip]Q[NMeA][dL][Dab][Cha]V[Orn]C[Dab]-NH2; thioether N-14) | 0.1
Cc1cccc(C[C@@H]2NC(=O)[C@H](CC(=O)O)NC(=O)[C@H](Cc3ccc(OCC(=O)O)cc3)NC(=O)[C@H](CC3CCCCC3)NC(=O)CSC[C@@H](C(=O)N[C@@H](CCN)C(N)=O)NC(=O)[C@H](CCCN)NC(=O)[C@H](C(C)C)NC(=O)[C@H](CN3CCOCC3)NC(=O)[C@H](CCN)NC(=O)[C@@H](CC(C)C)NC(=O)[C@H](C)N(C)C(=O)[C@H](CCC(N)=O)NC(=O)[C@H](Cc3ccc(-c4ccccc4)cc3)NC(=O)[C@H](Cc3ccc(C(=O)O)cc3)NC2=O)c1 [Example 5191] ({CH2CO}-[Cha]Y(Carboxymethyl)D[Phe(3-Me)][Phe(4-COOH)][Bip]Q[NMeA][dL][Dab][Ala(morpholin-4-yl)]V[Orn]C[Dab]-NH2; thioether N-14) | 0.12
CC(=O)Nc1ccc(-c2ccc(C[C@@H]3NC(=O)[C@H](Cc4cccc(C(F)(F)F)c4)NC(=O)[C@H](CC(=O)O)NC(=O)[C@H](Cc4ccc(-c5ccc(C(=O)O)cc5)cc4)NC(=O)[C@H](CN4CCOCC4)NC(=O)CSC[C@@H](C(=O)N[C@@H](CCN)C(N)=O)NC(=O)[C@H](CCC(N)=O)NC(=O)[C@H](C(C)(C)O)NC(=O)[C@H](CC4CCCCC4)NC(=O)[C@H](CCN)NC(=O)[C@@H](CC(C)C)NC(=O)[C@H](C)N(C)C(=O)[C@H](Cc4ccc(C(=O)O)cc4)NC(=O)[C@H](Cc4ccc(-c5ccccc5)cc4)NC3=O)cc2)cc1 [Example 5296] ({CH2CO}-[Ala(morpholin-4-yl)][Bip(4'-COOH)]D[Phe(3-CF3)][Bip(4'-NHAc)][Bip][Phe(4-COOH)][NMeA][dL][Dab][Cha][Val(3-OH)]QC[Dab]-NH2; thioether N-14) | 0.02
Cc1cccc(C[C@@H]2NC(=O)[C@H](CC(=O)O)NC(=O)[C@H](Cc3ccc(OCC(=O)O)cc3)NC(=O)[C@H](CC3CCCCC3)NC(=O)CSC[C@@H](C(=O)N[C@@H](CCN)C(N)=O)NC(=O)[C@H](CCCN)NC(=O)[C@H](C(C)C)NC(=O)[C@H](CCC3CCCCC3)NC(=O)[C@H](CCN)NC(=O)[C@@H](CC(C)C)NC(=O)[C@H](C)N(C)C(=O)[C@H](CCC(N)=O)NC(=O)[C@H](Cc3ccc(-c4ccccc4)cc3)NC(=O)[C@H](Cc3ccc(C(=O)O)cc3)NC2=O)c1 [Example 5193] ({CH2CO}-[Cha]Y(Carboxymethyl)D[Phe(3-Me)][Phe(4-COOH)][Bip]Q[NMeA][dL][Dab][hCha]V[Orn]C[Dab]-NH2; thioether N-14) | 0.38
CC(=O)Nc1ccc(-c2ccc(C[C@@H]3NC(=O)[C@H](Cc4cccc(C(F)(F)F)c4)NC(=O)[C@H](CC(=O)NS(C)(=O)=O)NC(=O)[C@H](Cc4ccc(C(=O)O)cc4)NC(=O)[C@H]([C@H](C)N)NC(=O)CSC[C@@H](C(=O)N[C@@H](CCN)C(N)=O)NC(=O)[C@H](CCC(N)=O)NC(=O)[C@H](C(C)C)NC(=O)[C@H](CC4CCCCC4)NC(=O)[C@H](CCN)NC(=O)[C@@H](CC(C)C)NC(=O)[C@H](C)N(C)C(=O)[C@H](Cc4ccc(C(N)=O)cc4)NC(=O)[C@H](Cc4ccc(-c5ccccc5)cc4)NC3=O)cc2)cc1 [Example 5099] ({CH2CO}-[Abu(3S-NH2)][Phe(4-COOH)][X5][Phe(3-CF3)][Bip(4'-NHAc)][Bip][Phe(4-CONH2)][NMeA][dL][Dab][Cha]VQC[Dab]-NH2; thioether N-14) | 0.65
Cc1cccc(C[C@@H]2NC(=O)[C@H](CC(=O)O)NC(=O)[C@H](Cc3ccc(OCC(=O)O)cc3)NC(=O)[C@H](CC3CCCCC3)NC(=O)CSC[C@@H](C(=O)N[C@@H](CCN)C(N)=O)NC(=O)[C@H](CCCN)NC(=O)[C@H](C(C)C)NC(=O)[C@H](CC3CC3)NC(=O)[C@H](CCN)NC(=O)[C@@H](CC(C)C)NC(=O)[C@H](C)N(C)C(=O)[C@H](CCC(N)=O)NC(=O)[C@H](Cc3ccc(-c4ccccc4)cc3)NC(=O)[C@H](Cc3ccc(C(=O)O)cc3)NC2=O)c1 [Example 5192] ({CH2CO}-[Cha]Y(Carboxymethyl)D[Phe(3-Me)][Phe(4-COOH)][Bip]Q[NMeA][dL][Dab][Ala(cPr)]V[Orn]C[Dab]-NH2; thioether N-14) | 0.15

Same assay, conditions: Jurkat-PD-1 cells, Alexa fluor-647 labeled PD-L1-Ig 177 nM; nM; read-out: CBA Method 3

Compound | IC50 [µM]
Cc1cccc(C[C@@H]2NC(=O)[C@H](CC(=O)O)NC(=O)[C@H](Cc3ccc(C(=O)O)cc3)NC(=O)[C@H](CC3CCCCC3)NC(=O)CSC[C@@H](C(=O)N[C@@H](CCN)C(N)=O)NC(=O)[C@H](CCC(=O)O)NC(=O)[C@H](C(C)C)NC(=O)[C@H](CC3CCCCC3)NC(=O)[C@H](CCN)NC(=O)[C@@H](CC(C)C)NC(=O)[C@H](C)N(C)C(=O)[C@H](Cc3ccc(C(=O)O)cc3)NC(=O)[C@H](Cc3ccc(-c4ccccc4)cc3)NC(=O)[C@H](Cc3ccc(C(=O)O)cc3)NC2=O)c1 [Example 5196] ({CH2CO}-[Cha][Phe(4-COOH)]D[Phe(3-Me)][Phe(4-COOH)][Bip][Phe(4-COOH)][NMeA][dL][Dab][Cha]VEC[Dab]-NH2; thioether N-14) | 0.0072
CC(C)C[C@H]1NC(=O)[C@H](C)N(C)C(=O)[C@H](Cc2ccc(C(=O)O)cc2)NC(=O)[C@H](Cc2ccc(-c3ccccc3)cc2)NC(=O)[C@H](CCc2ccccc2)NC(=O)[C@H](Cc2cccc(C(F)(F)F)c2)NC(=O)[C@H](CC(=O)O)NC(=O)[C@H](Cc2ccc(C(=O)O)cc2)NC(=O)[C@H](CCCCNC(=N)N)NC(=O)CSC[C@@H](C(=O)N[C@@H](CCN)C(N)=O)NC(=O)[C@H](CO)NC(=O)[C@H](C(C)(C)O)NC(=O)[C@H](CC2CCCCC2)NC(=O)[C@H](CCN)NC1=O [Example 5252] ({CH2CO}-[hArg][Phe(4-COOH)]D[Phe(3-CF3)][hPhe][Bip][Phe(4-COOH)][NMeA][dL][Dab][Cha][Val(3-OH)]SC[Dab]-NH2; thioether N-14) | 0.0012
CCCC[C@@H]1NC(=O)CSC[C@@H](C(=O)N[C@@H](CCN)C(N)=O)NC(=O)[C@H](CCCN)NC(=O)[C@H](C(C)C)NC(=O)[C@H](CC2CCCCC2)NC(=O)[C@H](CCN)NC(=O)[C@@H](CC(C)C)NC(=O)[C@H](C)N(C)C(=O)[C@H](CCC(N)=O)NC(=O)[C@H](Cc2ccc(-c3ccccc3)cc2)NC(=O)[C@H](Cc2ccc(-c3ccc(C(=O)O)cc3)cc2)NC(=O)[C@H](Cc2cccc(C(F)(F)F)c2)NC(=O)[C@H](CC(=O)O)NC(=O)[C@H](Cc2ccc(C(=O)O)cc2)NC1=O [Example 5166] ({CH2CO}-[Nle][Phe(4-COOH)]D[Phe(3-CF3)][Bip(4'-COOH)][Bip]Q[NMeA][dL][Dab][Cha]V[Orn]C[Dab]-NH2; thioether N-14) | 0.001
